Test results published in US20220220533A1, “METHOD OF DIAGNOSING AND MONITORING SUBSTANCE ADDICTION OR BEHAVIORAL ADDICTION USING C-KIT BIOMARKER” (Wuhan University, priority 2019, published 2022).
Where a name gives a salt, the structure may show the parent alone.

Columns and labels:
[1] = tested on: gambling behavior; test: Rat gambling behavior model (rGT), Example 9; format: in vivo; settings: rats, imatinib mesylate 30 mg/kg
Description: A gambling behavior model of rats was established: animals were first accustomed to the operating chambers twice a day for 30 min each time, during which sucrose granules were placed on the reaction wells and the food banks. Animals were then trained to poke their noses into one of the luminescent reaction wells within 10 s to obtain a reward. Space positions of the stimulus light were varied in different experiments of wells 1, 2, 4 and 5. Each session consisted of 100 trials lasting approximately 30 min. After 5 trials, animals continued to complete 100 trials. Animals were then trained 7 times for forced-choice rGT (or an rGT variant of the control group), followed by a completely free-choice task, ensuring that all animals had the same experience in the four reinforcement conditions and were designed to prevent simple prejudice against specific wells. The percentage of animals selected for a particular option trial was calculated according to the formula […].

[2] = tested on: high-sugar and high-fat food CPP; test: Formation of conditioned place preference on high-sugar and high-fat food in rats; format: in vivo, rat; settings: imatinib mesylate 1, 5, 10, 20 and 30 mg/kg i.p.
[3] = tested on: high-sugar and high-fat food CPP; test: High-sugar and high-fat food CPP after environmental or unconditioned re-exposure, intraperitoneal administration; settings: rats
[4] = tested on: morphine CPP; settings: mice
[5] = tested on: high-sugar and high-fat food CPP; test: High-sugar and high-fat food CPP after environmental or unconditioned re-exposure, nucleus accumbens microinjection; format: in vivo, rat; settings: rats
[6] = tested on: morphine CPP; test: Formation of morphine conditioned place preference (CPP) in mice; format: in vivo; settings: imatinib mesylate 45 mg/kg i.p. 30 min before morphine 15 mg/kg s.c., test day 10
[7] = biological target: T1, c-Kit (Rattus norvegicus, UniProt F7EWK5); format: in vivo; settings: rats, imatinib mesylate 30 mg/kg i.p. 30 min before morphine or saline
T1 construct: from tissue; host or cells: rat brain (nucleus accumbens, prefrontal cortex, hippocampus and other regions)
Description: (§1) After 1 h, anesthesia and perfusion were performed, a brain tissue was fixed with a 4% paraformaldehyde solution, dehydrated in alcohol solutions with different concentrations, hyalinized in xylene, embedded in paraffin, and then cut into 3 μm-thick sections. Tissues were deparaffinized, boiled in 0.01M sodium citrate buffer (pH 6.0) for 10-15 min, and cooled in cold water to room temperature.

[8] = tested on: gambling behavior; test: Dose effect on gambling behavior in rats under gambling task (rGT) conditions; format: in vivo, rat
Description: A gambling behavior model of rats was established: firstly, the animals were acclimated to the operating chamber twice a day for 30 min each time, during which sucrose granules were placed on the reaction wells and the food bank. After acclimation, animals were trained to poke their noses into one of the luminescent reaction wells within 10 s to obtain a reward. Spatial positions of the stimulus light would appear in different wells of wells 1, 2, 4 and 5 in different experiments. Each session consisted of 100 trials lasting approximately 30 min. Animals were then trained 7 times for forced-choice rGT (or an rGT variant of the control group), and then underwent a completely free-choice task. This ensured that all animals had the same experience under the four reinforcement conditions and were designed to prevent simple prejudice against specific wells. The percentage of trials in which animals chose a particular option was calculated according to the formula in reference: Choices of a particular option/Total choices of 100 (Di C P, Manvich D F, Pushparaj A, et al. Effects of disulfiram on choice behavior in a rodent gambling task: association with catecholamine levels[J]. Psychopharmacology, 2018, 235(1):23-35). Each experiment lasted 30 min and experimental subjects responded with a nose poke on the illuminated food bank, which turned off the tray light and triggered the initiation of a 5-s intertrial interval (ITT). At the end of the ITI, wells 1, 2, 4 and 5 were illuminated for 10 s (in the forced-choice version of the task used in the training, only one well was illuminated).
Explanation to the above table: four wells in the experimental apparatus were respectively provided with different reward probability and penalty probability, as well as corresponding reward sucrose amount and penalty time.
After training, the rats were given with drugs. […] The rats in the direct administration group were directly given with imatinib (1, 5, 10, 20 and 30 mg/kg, ip) or saline (1 mL/kg, ip) without being placed in the experimental device. […]

[9] = biological target: T1, c-Kit; format: in vivo; settings: gambling rats, imatinib mesylate 30 mg/kg
[10] = tested on: c-Kit; format: in vivo, rat
Description: Under the guidance of NIR-II fluorescence imaging, dynamic changes of the brain regions of the rats were dynamically monitored and photographed at 2 h, 6 h, 8 h and 12 h with a near-infrared II region imaging camera, respectively, so as to indicate changes in a phosphorylation level of c-Kit protein.

[11] = tested on: c-Kit; format: in vivo, rat; settings: rats, 1 h after acute morphine 10 mg/kg s.c., compared with normal rats
Description: as §1

[12] = rats exposed to the environment, 10, 20 and 30 mg/kg ip, compared to control group

T1 sequence (F7EWK5 26-978): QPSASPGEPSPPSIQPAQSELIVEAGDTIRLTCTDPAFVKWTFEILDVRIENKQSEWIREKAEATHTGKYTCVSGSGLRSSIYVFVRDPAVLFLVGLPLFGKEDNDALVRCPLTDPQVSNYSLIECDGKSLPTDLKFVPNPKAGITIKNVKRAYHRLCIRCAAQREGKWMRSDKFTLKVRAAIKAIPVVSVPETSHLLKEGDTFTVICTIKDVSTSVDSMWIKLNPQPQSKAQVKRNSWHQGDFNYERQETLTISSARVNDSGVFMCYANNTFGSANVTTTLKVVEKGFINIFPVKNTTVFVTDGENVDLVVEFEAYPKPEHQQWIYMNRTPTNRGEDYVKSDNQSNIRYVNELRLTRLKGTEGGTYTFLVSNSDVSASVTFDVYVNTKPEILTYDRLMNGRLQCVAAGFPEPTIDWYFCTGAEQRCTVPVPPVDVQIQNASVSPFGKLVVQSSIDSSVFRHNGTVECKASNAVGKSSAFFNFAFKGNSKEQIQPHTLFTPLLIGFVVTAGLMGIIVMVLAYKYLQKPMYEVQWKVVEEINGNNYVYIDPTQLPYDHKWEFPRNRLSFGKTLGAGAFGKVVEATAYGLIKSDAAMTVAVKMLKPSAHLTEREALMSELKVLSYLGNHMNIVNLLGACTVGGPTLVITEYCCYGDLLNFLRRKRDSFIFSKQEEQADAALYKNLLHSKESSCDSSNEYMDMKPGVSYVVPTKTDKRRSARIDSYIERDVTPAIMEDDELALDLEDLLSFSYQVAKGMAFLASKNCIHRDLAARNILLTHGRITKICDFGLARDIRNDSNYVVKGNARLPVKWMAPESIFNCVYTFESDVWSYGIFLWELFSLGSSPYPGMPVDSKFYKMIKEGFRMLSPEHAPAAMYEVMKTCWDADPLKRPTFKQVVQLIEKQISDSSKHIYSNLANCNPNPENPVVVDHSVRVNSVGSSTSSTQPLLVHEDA

Row | SMILES | gambling behavior [1] | formation of conditioned place preference on high-sugar and high-fat food [2] | ignition of CPP ([3]; i.p. administration, small amount of high-sugar and high-fat food, after 2 weeks) | food-seeking behaviors induced by environment and food ([3]; imatinib mesylate 1, 5, 10, 20 and 30 mg/kg i.p. after re-exposure) | CPP Score after re-exposure to environmental cues ([4]; imatinib mesylate 45 mg/kg i.p. 30 min before re-exposure) | ignition of morphine CPP ([4]; small dose of morphine 5 mg/kg i.p., after 1 week) | food-seeking behavior caused by the environment and food ([5]; nucleus accumbens microinjection 4 μg/0.5 μL) | ignition of CPP ([5]; nucleus accumbens microinjection, after 2 weeks) | formation of conditioned place preference (CPP score) [6] | phosphorylation activity of c-Kit protein in nucleus accumbens, prefrontal cortex and hippocampus [7] | effect on gambling choice in rGT ([8]; rats as directly administered, any dose (1-30 mg/kg ip)) | choice at P4 in rGT [8, 12] | optimal choice at P2 in rGT [8, 12] | phosphorylation level of c-Kit [9] | time at which enrichment intensity of the probes reached a peak ([10]; rats after acute morphine administration) [h] | phosphorylation activity of c-Kit in the brains of the rats (brain brightness) ([10]; rats, acute morphine 10 mg/kg s.c., contrast with normal saline group) | phosphorylation level of c-Kit protein in nucleus accumbens regions [11] | phosphorylation level of c-Kit protein in prefrontal cortex, hippocampus and other regions [11]
1 | Cc1ccc(NC(=O)c2ccc(CN3CCN(C)CC3)cc2)cc1Nc1nccc(-c2cccnc2)n1 [imatinib mesylate] | significantly eliminated | inhibited | not ignited | inhibited | significantly reduced | not ignited | inhibited | not ignited | could not be formed normally | significantly decreased | no significant effect | reduced | significantly increased | significantly inhibited |  |  |  | 
2 | CN1CC[C@]23c4c5ccc(O)c4O[C@H]2[C@@H](O)C=C[C@H]3[C@H]1C5 [morphine] |  |  |  |  |  |  |  |  |  |  |  |  |  |  | 6 | significantly enhance | significantly increased | no significant change
